Patent US20240114902A1, “COMPOSITIONS AND METHODS FOR DETERRING OVIPOSITION BY FRUIT FLIES” (The United States of America, as represented by The …, priority 2022, published 2024)

Assays:
Type in all cases: in vivo
Bactrocera dorsalis = test: B. dorsalis spatial deterrence, two-choice traps baited with guava juice; conditions: tested individually
Procedure: In addition to CFA, a series of odd-numbered carbon fatty acids (C9:0 to C17:0) and fatty acid methyl esters were evaluated for the spatial deterrence to B. dorsalis that results in oviposition reduction. Table 3 below lists the fatty acid methyl esters tested for spatial repellency for Bactrocera dorsalis. […] FIG. 16A, FIG. 16C, FIG. 16E, FIG. 16G, FIG. 16I, FIG. 16K, FIG. 16M, FIG. 16O, FIG. 16Q, and FIG. 16S show the mean numbers (±SEM) of mated female B. dorsalis flies captured, and FIG. 16B, FIG. 16D, FIG. 16F, FIG. 16H, FIG. 16J, FIG. 16L, FIG. 16N, FIG. 16P, FIG. 16R, and FIG. 16T show the number of B. dorsalis eggs oviposited in traps baited with guava juice (control) and with guava juice plus one of the coconut fatty acid methyl ester compounds in two-choice bioassays. For each test, different letter on the bar indicate a significant difference by Tukey-Kramer tests at P<0.05, n=4.

[1] = test system: Bactrocera dorsalis (OFF); test: OFF two-choice cage oviposition bioassay on guava juice-infused agar; set-up: key to Activity (OFF oviposition group): Negative: “OFF negative” (i.e., oviposition reduced); Neutral: “OFF neutral” (i.e., no effect on oviposition); Positive: “OFF positive” (i.e., oviposition increased); conditions: for effect on OFF oviposition vs control agar / OFF oviposition deterrence at lower dose: individual compound; for effect on OFF oviposition vs control agar / OFF oviposition increase vs control agar / OFF oviposition reduction vs control agar: 20 mg/agar; for Activity (OFF oviposition group): individual CFA component; for OFF oviposition increase vs control agar: ethanol control; for OFF oviposition reduction vs control agar: 3 days; for OFF oviposition deterrence at lower dose: 2 mg dose
Procedure: Evaluation of oviposition deterrence of CFA: OFF oviposition bioassays were conducted using laboratory two-choice cage experiments with guava juice-infused agar as an oviposition substrate. The agar plates were prepared by pouring 30 mL of boiled agar mixture [1000 mL distilled water, 500 mL guava juice (Deans Foods, El Paso, Texas, USA), 10 g agar, 0.6 g methylparaben, 6.7 mL 95% ethanol, and 3 mL acetic acid] into a 30 mL deli plastic cup to gel. The agar was then covered with a lid to avoid desiccation. The two-choice oviposition bioassay was conducted in screened cages using 20 mated OFF females per cage (12-18 day-old; Jang E B et al., 1997, “Attraction of female oriental fruit fly, Bactrocera dorsalis, to volatile semiochemicals from leaves and extracts of a non-host plant, Panax (Polyscias guilfoylei) in laboratory and olfactometer assays,” J. Chem. Ecol. 23:1389-1401) over 3 days. Each cage was provided with a ball of water-saturated cotton, sugar, and protein hydrolysate in separate 30 mL deli cups and two guava juice agar plates-one treated with CFA diluted in hexane and the other treated with the hexane control. The agar plates were surface-treated either with 200 μL of hexane or 200 μL of CFA in one of 4 doses tested (20, 2, 0.2, and 0.02 mg/200 μL of hexane), placed into a fume hood for 10 minutes prior to use in bioassays, and positioned upside-down (i.e., treated side down) on the center of the outside top of the screened cage 17 cm apart from each other (i.e., one each of control and CFA treated), allowing female flies to oviposit on guava juice agar from the bottom through the cage screen. After three days, OFF eggs in the guava agar were gently separated from the agar in water and the number of eggs were individually counted (up to 100 eggs) or estimated volumetrically at 1 mL OFF eggs=20,000 eggs (Stephanie Gayle personal communication). The experiment was replicated six times per treatment. Determination of bioactive oviposition deterrent components from CFA: A series of bioassays was conducted to identify key deterrent components of CFA for OFF using the same two-choice bioassay design described above. […] Ethanol was used as control and for preparing dilutions of C16:0 and C18:0. Hexane was used as control and for dilutions of the other six compounds tested. Based on the outcome of these bioassays, the eight free fatty acid components were assigned to “OFF negative” (i.e., oviposition reduced), “OFF neutral” (i.e., no effect on oviposition), and “OFF positive” (i.e., oviposition increased) compound groups. Using these groupings, four different blends were formulated (indicated in Table 1), composed at the equivalent ratios and concentrations of each component found in CFA (Zhu J J et al., 2018, supra), to determine key bioactive CFA components in terms of oviposition deterrence on OFF. The approach involved testing the bioactivity of the OFF negative-component blend (4c blend) for oviposition deterrence at three different doses (2, 0.2, and 0.02 mg CFA equivalent/agar), first comparing with hexane control, then with CFA at respective equivalent doses. As the 4c blend was not as effective as CFA, a “OFF negative+OFF neutral” component blend (6c blend) was then formulated, and its effect compared with CFA at 2 and 0.2 mg CFA equivalent/agar. Two subtraction blends with one of the two OFF neutral components removed from the 6c blend (5c-i and 5c-ii blends) were formulated and compared with the 6c blend at 2 and 0.2 mg CFA equivalent/agar. The experiment was replicated four to six times per treatment.

Zeugodacus cucurbitae = test: Z. cucurbitae two-choice oviposition bioassay on pumpkin juice-infused agar; set-up: key to Behavioral activity (Z. cucurbitae oviposition group): Negative: “negative” (i.e., oviposition reduced); Neutral: “neutral” (i.e., no effect on oviposition); Positive: “positive” (i.e., oviposition increased); conditions: for Z. cucurbitae oviposition increase vs ethanol control agar: 24 hours; for Behavioral activity (Z. cucurbitae oviposition group): individual CFFA component; for Z. cucurbitae oviposition reduction vs control agar: individual compound
Procedure: Oviposition bioassays were conducted with mated female flies, using pumpkin juice-infused agar as an oviposition substrate. A small petri dish (60×15 mm) filled with 10 mL of 1% agar mixed in pumpkin juice was used as an oviposition substrate. The agar plates were surface-treated either with 200 μL of ethanol or 200 μL of CFFA in one of 4 doses tested (20, 2, 0.2, and 0.02 mg/200 μL of ethanol), placed into a fume hood for 10 minutes for solvent evaporation prior to use in bioassays, and positioned upside-down (i.e. treated side down) on top of the 30×30×30 cm (W×L×H) screened cage 17 cm apart from each other (i.e. one each of control and CFFA treated), allowing 20 female flies (14 to 18 day-old) to oviposit on pumpkin juice agar from the bottom through the cage screen for 24 hours. Each cage was provided with a ball of water-saturated cotton, sugar, and protein hydrolysate in separate 30 mL deli cups and two oviposition substrates-one treated with CFFA diluted in ethanol and the other treated with the ethanol control. After 24 hours, Z. cucurbitae eggs in the pumpkin agar were gently separated from the agar in water and the number of eggs were individually counted. The experiment was replicated five times per treatment. CFFA was not an effective oviposition deterrent for Z. cucurbitae which is contrary to our previous work on B. dorsalis (Roh et al., 2023a). […] CFFA components were categorized into three groups “negative” (i.e., oviposition reduced), “neutral” (i.e., no effect on oviposition), and “positive” (i.e., oviposition increased) based on bioassay outcome. Using these categories, further formulations were made to determine key bioactive CFFA components in terms of oviposition deterrence on Z. cucurbitae at the equivalent ratios and concentrations of each component found in CFFA (Zhu et al. 2018). The approach involved testing the bioactivity of the negative-component blend (4c blend) for oviposition deterrence at three different doses (2, 0.2, and 0.02 mg CFFA equivalent/agar), compared with ethanol control. Further, neutral compound is added to the negative blend i.e., ‘negative+neutral’ component blend (5c blend) to identify key compounds for oviposition deterrence. The experiment was replicated five times per treatment.

Drosophila suzukii (SWD) = test: SWD laboratory two-choice oviposition bioassay on raspberries; set-up: key to Behavioral activity (SWD oviposition group): Negative: “SWD negative” compounds (i.e., SWD oviposition was reduced); Neutral: “SWD neutral” compounds (i.e., no effect on oviposition); conditions: two-choice; for Behavioral activity (SWD oviposition group): individual CFA component; for effect on SWD oviposition vs control: individual compound, 20 mg dose
Procedure: Laboratory choice test 1 Oviposition bioassays were conducted at USDA-ARS in Hilo, Hawaii using a laboratory two-choice cage experimental set-up with organic raspberries purchased from a local grocery as an oviposition substrate. For all laboratory assays listed below, the receptacles of the raspberries were stuffed with cotton to prevent flies from ovipositing on the interior of the fruit as described previously in Cha D H et al. (2021, supra). The two-choice oviposition bioassay was conducted over 24 hours in screened cages (30 cm W×30 cm L×30 cm H; BugDorm-2120 Insect tent; shop.bugdorm.com) with 30 female and 10 male SWD (7-8 days old) released per cage. Each cage was provided with cotton moistened with water in a 20 mL deli cup and two 30 mL deli cups; one with two raspberries treated with CFA diluted in hexane and the other with two raspberries treated with hexane only. Each raspberry was surface-treated either with 200 μL of hexane or 200 μL of CFA in one of three doses (20, 2, or 0.2 mg CFA/200 μL hexane), placed into a fume hood for 10 minutes or until used in the bioassay. The deli cups with the treated berries were positioned in the center of the floor of the screened cage, 17 cm apart from each other. Female flies were allowed to oviposit on the surface of raspberries for 24 hours. At the conclusion of the bioassay, each 30 mL deli cup containing two raspberries was moved into a 600 mL deli cup with a mesh cap, held for 8 days (22.1±1.9° C., 71.7±3.1% RH, 16:8 L:D), when the number of larvae and pupae were counted. The experiment was replicated four times per treatment. Laboratory choice test 2 A series of bioassays were conducted in Hilo, Hawaii to identify key bioactive deterrent components of CFA for SWD using the same two-choice bioassay described above. […] Due to solubility differences, ethanol was used as control and for dilution of C16:0 and C18:0, while hexane was used as control and for dilution of the other six compounds tested. Based on the outcome of these bioassays, the eight free fatty acid components of CFA were grouped into two groups; “SWD negative” compounds (i.e., SWD oviposition was reduced) and “SWD neutral” compounds (i.e., no effect on oviposition), and tested whether the blend of “SWD negative” compounds had the same oviposition deterrence as the CFA at their equivalent concentrations as in CFA (see Table 2). The oviposition deterrence of the blend of “SWD negative” compounds was first compared to hexane at three different doses (20, 2 and 0.2 mg CFA equivalent/raspberry) and subsequently compared to CFA at 2 mg equivalent dose.

SMILES	effect on female B. dorsalis attraction and oviposition to host fruit odors (Bactrocera dorsalis)	Behavioral activity (Z. cucurbitae oviposition group) (Zeugodacus cucurbitae)	Activity (OFF oviposition group) [1]	Behavioral activity (SWD oviposition group) (Drosophila suzukii (SWD))	effect on SWD oviposition vs control (Drosophila suzukii (SWD))	other results
CCCCCCCCC(=O)OC [C9:0 ME, Methyl pelargonate]	significantly reduced	–	–	–	–	–
CCCCCCCCCCC(=O)OC [C11:0 ME, Methyl undecanoate]	significantly reduced	–	–	–	–	–
CCCCCCCCCCC(=O)O [C11:0, Undecylic acid]	–	–	–	–	–	effect on OFF oviposition vs control agar [1]: significantly reduced
CCCCCCCCCCCC(=O)O [C12:0, lauric acid]	–	Positive	Neutral	Neutral	did not increase or decrease SWD oviposition	Z. cucurbitae oviposition increase vs ethanol control agar (Zeugodacus cucurbitae; 20 mg dose): 86.4%; effect on OFF oviposition vs control agar [1]: did not affect OFF oviposition
CCCCCCCCCCCCC(=O)OC [C13:0 ME, Methyl tridecanoate]	significantly reduced	–	–	–	–	–
CCCCCCCCCCCCCC(=O)O [C14:0, myristic acid]	–	Positive	Neutral	Neutral	did not increase or decrease SWD oviposition	Z. cucurbitae oviposition increase vs ethanol control agar (Zeugodacus cucurbitae; 20 mg dose): 77.7%; effect on OFF oviposition vs control agar [1]: did not affect OFF oviposition
CCCCCCCCCCCCCCC(=O)OC [C15:0 ME, Methyl pentadecanoate]	significantly reduced	–	–	–	–	–
CCCCCCCCCCCCCCCC(=O)O [C16:0, palmitic acid]	–	Positive	Positive	Neutral	did not increase or decrease SWD oviposition	Z. cucurbitae oviposition increase vs ethanol control agar (Zeugodacus cucurbitae; 20 mg dose): 67.3%; OFF oviposition increase vs control agar [1]: 60%
CCCCCCCCCCCCCCCCCC(=O)O [C18:0, stearic acid]	–	Neutral	Positive	Neutral	did not increase or decrease SWD oviposition	effect on Z. cucurbitae oviposition (Zeugodacus cucurbitae; 20 mg dose): did not affect oviposition; OFF oviposition increase vs control agar [1]: 29%
CCCCCCCC/C=C\CCCCCCCC(=O)O [C18:1, oleic acid]	–	Negative	Negative	Neutral	did not increase or decrease SWD oviposition	effect on Z. cucurbitae oviposition (Zeugodacus cucurbitae; 2 mg dose): either lost oviposition deterrence or increased oviposition; Z. cucurbitae oviposition reduction vs control agar (Zeugodacus cucurbitae; 20 mg dose): 98.1%; OFF oviposition reduction vs control agar [1]: 100%; OFF oviposition deterrence at lower dose [1]: maintained OFF oviposition deterrence
CCCCC/C=C\C/C=C\CCCCCCCC(=O)O [C18:2, linoleic acid]	–	Negative	Negative	Neutral	did not increase or decrease SWD oviposition	effect on Z. cucurbitae oviposition (Zeugodacus cucurbitae; 2 mg dose): either lost oviposition deterrence or increased oviposition; Z. cucurbitae oviposition reduction vs control agar (Zeugodacus cucurbitae; 20 mg dose): 96.4%; OFF oviposition reduction vs control agar [1]: 99%; OFF oviposition deterrence at lower dose [1]: maintained OFF oviposition deterrence
